ChEMBL document CHEMBL5291721, “A preclinical secondary pharmacology resource illuminates target-adverse drug reaction associations of marketed drugs” (Nat Commun, 2023)

Columns and labels:
[1] = molecular target: Adenosine receptor A2a (Homo sapiens, UniProt P29274)
[2] = molecular target: T1, Alpha-2C adrenergic receptor (Homo sapiens, UniProt P18825); assay type: functional
T1 sequence (P18825 whole entry): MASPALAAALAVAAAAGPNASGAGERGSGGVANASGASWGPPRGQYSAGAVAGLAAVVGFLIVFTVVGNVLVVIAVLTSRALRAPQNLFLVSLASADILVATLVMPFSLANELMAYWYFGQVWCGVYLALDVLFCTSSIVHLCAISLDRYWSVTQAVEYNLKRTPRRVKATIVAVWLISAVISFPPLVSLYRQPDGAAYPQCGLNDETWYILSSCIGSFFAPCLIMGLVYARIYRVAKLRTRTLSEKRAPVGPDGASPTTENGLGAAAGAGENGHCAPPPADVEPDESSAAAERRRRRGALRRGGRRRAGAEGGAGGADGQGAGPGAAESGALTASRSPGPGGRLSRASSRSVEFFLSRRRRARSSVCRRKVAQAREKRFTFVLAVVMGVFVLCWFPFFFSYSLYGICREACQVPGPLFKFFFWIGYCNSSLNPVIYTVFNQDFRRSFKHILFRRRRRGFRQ

[3] = molecular target: T2, Muscarinic acetylcholine receptor M1 (Homo sapiens, UniProt P11229); assay type: functional
T2 sequence (P11229 whole entry): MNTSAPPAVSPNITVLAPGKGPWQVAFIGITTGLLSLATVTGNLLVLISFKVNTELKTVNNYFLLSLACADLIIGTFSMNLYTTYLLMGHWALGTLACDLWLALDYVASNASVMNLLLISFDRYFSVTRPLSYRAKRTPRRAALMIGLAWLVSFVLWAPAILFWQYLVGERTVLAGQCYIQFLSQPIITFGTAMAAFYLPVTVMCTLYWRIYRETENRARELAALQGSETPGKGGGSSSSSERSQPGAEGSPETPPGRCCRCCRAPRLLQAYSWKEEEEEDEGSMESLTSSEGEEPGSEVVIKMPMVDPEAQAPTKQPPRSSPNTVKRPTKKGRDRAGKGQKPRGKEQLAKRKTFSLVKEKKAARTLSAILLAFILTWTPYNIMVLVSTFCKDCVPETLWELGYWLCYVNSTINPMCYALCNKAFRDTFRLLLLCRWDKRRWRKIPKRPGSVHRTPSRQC

[4] = molecular target: T3, Muscarinic acetylcholine receptor M2 (Homo sapiens, UniProt P08172); assay type: functional, cell-based
T3 sequence (P08172 whole entry): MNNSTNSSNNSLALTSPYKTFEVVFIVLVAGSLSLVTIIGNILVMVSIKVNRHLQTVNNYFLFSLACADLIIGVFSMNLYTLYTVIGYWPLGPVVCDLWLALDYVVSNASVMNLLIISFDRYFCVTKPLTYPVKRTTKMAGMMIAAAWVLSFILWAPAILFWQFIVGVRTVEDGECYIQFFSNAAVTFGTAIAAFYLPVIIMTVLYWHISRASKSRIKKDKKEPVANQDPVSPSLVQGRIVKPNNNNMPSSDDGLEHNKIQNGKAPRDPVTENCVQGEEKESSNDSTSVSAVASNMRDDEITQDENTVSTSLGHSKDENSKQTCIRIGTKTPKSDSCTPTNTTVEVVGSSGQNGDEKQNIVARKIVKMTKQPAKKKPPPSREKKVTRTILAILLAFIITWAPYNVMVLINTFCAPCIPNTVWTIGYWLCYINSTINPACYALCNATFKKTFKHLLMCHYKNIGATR

[5] = molecular target: Gamma-aminobutyric acid receptor subunit alpha-1 (Rattus norvegicus, UniProt P62813)
[6] = molecular target: Growth hormone secretagogue receptor type 1 (Homo sapiens, UniProt Q92847)
[7] = molecular target: 5-hydroxytryptamine receptor 2A (Homo sapiens, UniProt P28223); assay type: functional, cell-based
[8] = molecular target: 5-hydroxytryptamine receptor 2B (Homo sapiens, UniProt P41595); assay type: functional, cell-based
[9] = molecular target: T4, 5-hydroxytryptamine receptor 2C (Homo sapiens, UniProt P28335)
T4 sequence (P28335 whole entry): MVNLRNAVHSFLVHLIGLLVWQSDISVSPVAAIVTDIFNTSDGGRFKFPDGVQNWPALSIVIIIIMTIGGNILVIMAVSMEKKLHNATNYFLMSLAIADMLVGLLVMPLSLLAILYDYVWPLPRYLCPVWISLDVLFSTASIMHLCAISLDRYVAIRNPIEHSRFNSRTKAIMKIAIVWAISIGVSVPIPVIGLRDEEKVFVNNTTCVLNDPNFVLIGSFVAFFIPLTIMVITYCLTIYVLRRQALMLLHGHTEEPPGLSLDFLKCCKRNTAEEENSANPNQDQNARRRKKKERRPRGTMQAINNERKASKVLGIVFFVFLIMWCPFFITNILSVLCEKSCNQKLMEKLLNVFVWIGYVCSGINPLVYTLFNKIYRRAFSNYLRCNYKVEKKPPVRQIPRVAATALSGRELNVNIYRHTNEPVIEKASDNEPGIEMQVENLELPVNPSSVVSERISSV

[10] = molecular target: Motilin receptor (Homo sapiens, UniProt O43193)
[11] = molecular target: Sodium-dependent dopamine transporter (Homo sapiens, UniProt Q01959)
[12] = molecular target: Sodium-dependent serotonin transporter (Homo sapiens, UniProt P31645)
[13] = molecular target: D(3) dopamine receptor (Homo sapiens, UniProt P35462)
[14] = molecular target: T5, Gastrin/cholecystokinin type B receptor (Homo sapiens, UniProt P32239)
T5 sequence (P32239 whole entry): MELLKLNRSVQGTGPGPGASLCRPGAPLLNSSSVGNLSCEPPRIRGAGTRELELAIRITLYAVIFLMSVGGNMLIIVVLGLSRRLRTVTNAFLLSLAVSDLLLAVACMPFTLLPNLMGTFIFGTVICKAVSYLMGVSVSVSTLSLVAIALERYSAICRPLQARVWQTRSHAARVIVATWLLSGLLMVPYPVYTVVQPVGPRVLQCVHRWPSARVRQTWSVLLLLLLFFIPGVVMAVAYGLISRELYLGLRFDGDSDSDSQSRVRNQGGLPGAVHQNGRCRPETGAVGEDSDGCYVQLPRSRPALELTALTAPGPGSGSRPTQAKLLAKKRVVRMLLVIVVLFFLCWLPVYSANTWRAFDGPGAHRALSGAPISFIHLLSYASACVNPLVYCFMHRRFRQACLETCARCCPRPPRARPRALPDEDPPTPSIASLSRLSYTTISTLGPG

[15] = molecular target: Cannabinoid receptor 1 (Homo sapiens, UniProt P21554); assay type: functional, cell-based
Further: assay procedure not described here.

Sequence of Motilin receptor (O43193 whole entry): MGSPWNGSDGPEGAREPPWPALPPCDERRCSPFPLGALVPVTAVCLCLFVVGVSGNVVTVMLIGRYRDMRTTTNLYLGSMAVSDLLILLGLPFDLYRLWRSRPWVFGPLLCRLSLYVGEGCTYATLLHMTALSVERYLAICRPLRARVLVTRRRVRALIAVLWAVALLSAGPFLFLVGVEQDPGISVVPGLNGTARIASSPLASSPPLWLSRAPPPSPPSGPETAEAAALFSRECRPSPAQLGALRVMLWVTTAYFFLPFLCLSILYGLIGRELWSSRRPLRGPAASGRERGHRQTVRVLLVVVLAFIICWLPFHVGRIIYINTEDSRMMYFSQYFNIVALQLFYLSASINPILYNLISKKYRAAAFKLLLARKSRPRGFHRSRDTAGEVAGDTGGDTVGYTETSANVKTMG
Sequence of Gamma-aminobutyric acid receptor subunit alpha-1 (P62813 whole entry): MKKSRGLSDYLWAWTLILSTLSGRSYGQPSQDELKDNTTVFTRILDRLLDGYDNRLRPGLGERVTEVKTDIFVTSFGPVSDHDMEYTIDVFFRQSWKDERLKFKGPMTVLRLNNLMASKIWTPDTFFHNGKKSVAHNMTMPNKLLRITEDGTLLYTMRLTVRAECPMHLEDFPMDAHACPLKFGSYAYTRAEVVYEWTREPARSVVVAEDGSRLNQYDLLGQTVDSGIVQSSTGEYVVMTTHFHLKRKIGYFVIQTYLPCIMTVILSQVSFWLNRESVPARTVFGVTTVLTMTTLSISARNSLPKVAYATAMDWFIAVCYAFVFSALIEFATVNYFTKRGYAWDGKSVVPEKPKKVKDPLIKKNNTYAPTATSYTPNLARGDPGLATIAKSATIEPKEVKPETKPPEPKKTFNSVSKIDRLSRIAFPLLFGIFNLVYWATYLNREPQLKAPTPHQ
Sequence of 5-hydroxytryptamine receptor 2B (P41595 whole entry): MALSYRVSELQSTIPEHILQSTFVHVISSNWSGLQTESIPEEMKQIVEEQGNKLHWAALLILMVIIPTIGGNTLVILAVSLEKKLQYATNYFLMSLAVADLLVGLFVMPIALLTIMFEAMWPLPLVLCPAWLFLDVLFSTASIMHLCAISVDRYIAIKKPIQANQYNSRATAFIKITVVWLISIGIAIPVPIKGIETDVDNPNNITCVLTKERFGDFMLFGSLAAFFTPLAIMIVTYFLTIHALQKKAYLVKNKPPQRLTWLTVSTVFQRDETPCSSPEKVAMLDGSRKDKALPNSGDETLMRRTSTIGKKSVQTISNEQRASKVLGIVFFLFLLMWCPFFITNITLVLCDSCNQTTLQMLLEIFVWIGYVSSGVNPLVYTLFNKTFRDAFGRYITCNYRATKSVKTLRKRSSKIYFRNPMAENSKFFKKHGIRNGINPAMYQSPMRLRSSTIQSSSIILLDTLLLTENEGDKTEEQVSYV
Sequence of Sodium-dependent serotonin transporter (P31645 whole entry): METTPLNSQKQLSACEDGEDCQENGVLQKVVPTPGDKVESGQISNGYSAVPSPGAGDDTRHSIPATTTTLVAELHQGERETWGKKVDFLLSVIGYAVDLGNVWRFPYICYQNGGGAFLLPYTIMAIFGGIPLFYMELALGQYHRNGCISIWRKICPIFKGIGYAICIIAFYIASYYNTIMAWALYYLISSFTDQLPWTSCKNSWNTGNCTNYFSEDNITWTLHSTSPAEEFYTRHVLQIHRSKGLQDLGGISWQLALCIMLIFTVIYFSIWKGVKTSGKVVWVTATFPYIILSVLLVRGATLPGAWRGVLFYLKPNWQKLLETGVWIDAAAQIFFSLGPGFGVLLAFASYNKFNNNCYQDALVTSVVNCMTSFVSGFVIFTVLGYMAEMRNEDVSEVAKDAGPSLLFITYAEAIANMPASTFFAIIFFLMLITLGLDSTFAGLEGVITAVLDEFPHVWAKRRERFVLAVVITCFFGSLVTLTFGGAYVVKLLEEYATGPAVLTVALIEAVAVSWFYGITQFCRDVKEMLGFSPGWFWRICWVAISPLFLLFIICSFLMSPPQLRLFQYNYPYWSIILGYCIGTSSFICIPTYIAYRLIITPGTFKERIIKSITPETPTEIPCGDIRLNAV
Sequence of Growth hormone secretagogue receptor type 1 (Q92847 whole entry): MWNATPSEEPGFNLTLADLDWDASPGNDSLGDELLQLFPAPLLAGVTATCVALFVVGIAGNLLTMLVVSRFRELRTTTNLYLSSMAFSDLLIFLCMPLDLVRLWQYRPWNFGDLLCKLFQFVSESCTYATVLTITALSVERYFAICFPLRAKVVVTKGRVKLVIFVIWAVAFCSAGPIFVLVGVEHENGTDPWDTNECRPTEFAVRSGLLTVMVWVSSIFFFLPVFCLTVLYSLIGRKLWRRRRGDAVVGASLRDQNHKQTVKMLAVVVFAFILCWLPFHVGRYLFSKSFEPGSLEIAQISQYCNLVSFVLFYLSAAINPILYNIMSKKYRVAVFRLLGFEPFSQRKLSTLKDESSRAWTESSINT
Sequence of Adenosine receptor A2a (P29274 whole entry): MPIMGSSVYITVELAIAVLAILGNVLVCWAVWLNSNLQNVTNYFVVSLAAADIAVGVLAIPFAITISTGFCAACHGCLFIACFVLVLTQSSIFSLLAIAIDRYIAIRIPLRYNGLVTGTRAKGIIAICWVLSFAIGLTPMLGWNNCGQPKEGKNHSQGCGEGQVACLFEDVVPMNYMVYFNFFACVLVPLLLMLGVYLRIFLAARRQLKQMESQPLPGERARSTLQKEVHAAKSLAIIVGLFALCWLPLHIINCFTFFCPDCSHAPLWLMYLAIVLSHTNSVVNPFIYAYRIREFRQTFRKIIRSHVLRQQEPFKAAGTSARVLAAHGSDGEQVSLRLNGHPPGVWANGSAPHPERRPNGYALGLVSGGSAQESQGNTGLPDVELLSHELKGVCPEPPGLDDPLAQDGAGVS
Sequence of D(3) dopamine receptor (P35462 whole entry): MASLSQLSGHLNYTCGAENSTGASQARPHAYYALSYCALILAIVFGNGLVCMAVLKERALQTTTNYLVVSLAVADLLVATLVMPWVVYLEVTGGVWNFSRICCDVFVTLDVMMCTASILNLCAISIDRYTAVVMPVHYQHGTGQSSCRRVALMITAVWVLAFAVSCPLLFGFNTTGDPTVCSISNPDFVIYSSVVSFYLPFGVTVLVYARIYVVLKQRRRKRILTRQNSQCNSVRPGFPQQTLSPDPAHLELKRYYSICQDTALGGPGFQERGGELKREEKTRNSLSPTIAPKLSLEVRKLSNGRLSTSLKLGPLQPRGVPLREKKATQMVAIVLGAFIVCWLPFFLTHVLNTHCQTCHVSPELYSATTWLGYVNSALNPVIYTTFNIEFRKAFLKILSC
Sequence of 5-hydroxytryptamine receptor 2A (P28223 whole entry): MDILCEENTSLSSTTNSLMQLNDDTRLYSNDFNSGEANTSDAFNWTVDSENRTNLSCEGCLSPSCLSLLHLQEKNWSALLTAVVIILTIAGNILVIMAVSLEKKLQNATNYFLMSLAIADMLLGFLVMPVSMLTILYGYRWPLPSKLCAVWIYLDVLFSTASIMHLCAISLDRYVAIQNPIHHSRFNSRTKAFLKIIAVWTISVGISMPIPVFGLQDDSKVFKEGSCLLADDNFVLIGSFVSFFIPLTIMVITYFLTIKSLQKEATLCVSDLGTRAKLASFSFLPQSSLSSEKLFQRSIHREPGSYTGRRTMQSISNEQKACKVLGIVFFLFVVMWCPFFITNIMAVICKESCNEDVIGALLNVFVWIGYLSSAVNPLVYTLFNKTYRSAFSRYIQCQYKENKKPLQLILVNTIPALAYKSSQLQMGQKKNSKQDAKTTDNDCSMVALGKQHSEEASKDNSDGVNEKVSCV
Sequence of Sodium-dependent dopamine transporter (Q01959 whole entry): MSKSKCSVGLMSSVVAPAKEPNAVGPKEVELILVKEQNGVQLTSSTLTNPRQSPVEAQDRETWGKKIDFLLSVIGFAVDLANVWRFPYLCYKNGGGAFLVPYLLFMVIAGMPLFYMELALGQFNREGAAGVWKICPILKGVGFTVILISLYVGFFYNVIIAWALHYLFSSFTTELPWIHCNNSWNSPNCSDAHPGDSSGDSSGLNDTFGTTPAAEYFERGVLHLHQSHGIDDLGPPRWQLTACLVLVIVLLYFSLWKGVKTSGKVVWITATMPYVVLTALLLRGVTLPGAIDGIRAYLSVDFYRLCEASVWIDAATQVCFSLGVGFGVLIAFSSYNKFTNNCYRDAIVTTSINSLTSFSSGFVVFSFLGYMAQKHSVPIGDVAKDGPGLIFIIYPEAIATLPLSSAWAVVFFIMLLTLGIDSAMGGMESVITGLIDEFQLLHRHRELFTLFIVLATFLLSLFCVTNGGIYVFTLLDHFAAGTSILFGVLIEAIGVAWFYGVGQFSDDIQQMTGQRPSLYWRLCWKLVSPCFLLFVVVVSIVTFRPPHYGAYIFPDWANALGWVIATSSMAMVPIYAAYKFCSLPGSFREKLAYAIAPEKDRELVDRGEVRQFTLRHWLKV
Sequence of Cannabinoid receptor 1 (P21554 whole entry): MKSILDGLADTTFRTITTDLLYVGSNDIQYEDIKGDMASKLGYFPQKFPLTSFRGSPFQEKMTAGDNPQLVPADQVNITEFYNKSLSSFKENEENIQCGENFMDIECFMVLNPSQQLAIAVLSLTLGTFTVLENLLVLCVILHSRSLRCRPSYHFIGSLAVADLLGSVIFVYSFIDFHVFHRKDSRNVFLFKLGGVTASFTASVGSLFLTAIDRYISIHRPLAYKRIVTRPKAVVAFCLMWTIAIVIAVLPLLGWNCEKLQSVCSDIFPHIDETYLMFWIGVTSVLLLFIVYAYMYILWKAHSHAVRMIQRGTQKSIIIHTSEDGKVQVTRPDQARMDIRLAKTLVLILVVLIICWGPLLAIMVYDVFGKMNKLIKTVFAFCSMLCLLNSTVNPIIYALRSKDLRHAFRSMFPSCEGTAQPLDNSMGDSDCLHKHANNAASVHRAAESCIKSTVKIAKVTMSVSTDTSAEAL

| SMILES | AC50 [1] | AC50 [2] | AC50 [3] | AC50 [4] | AC50 [5] | AC50 [6] | AC50 [7] | AC50 [8] | AC50 [9] | AC50 [10] | AC50 [11] | AC50 [12] | AC50 [13] | AC50 [14] | AC50 [15] |
| --- | --- | --- | --- | --- | --- | --- | --- | --- | --- | --- | --- | --- | --- | --- | --- |
| O=C(O)CCCCCCCC(=O)O [AZELAIC ACID] | > 10 µM | > 10 µM | > 10 µM | > 10 µM | > 10 µM | > 10 µM | > 10 µM | > 10 µM | > 30 µM | > 10 µM | > 10 µM | > 10 µM | > 30 µM | – | – |
| C=CCC1(CC(C)C)C(=O)NC(=O)NC1=O [BUTALBITAL] | > 10 µM | > 30 µM | > 30 µM | > 10 µM | > 10 µM | > 10 µM | > 10 µM | > 10 µM | > 30 µM | > 10 µM | > 10 µM | > 10 µM | > 30 µM | – | – |
| COc1ccc2c3c1O[C@H]1[C@@H](O)C=C[C@H]4[C@@H](C2)N(C)CC[C@@]341 [CODEINE] | > 30 µM | > 10 µM | > 10 µM | > 10 µM | > 30 µM | > 30 µM | – | > 10 µM | > 30 µM | > 10 µM | > 30 µM | > 30 µM | > 10 µM | > 30 µM | > 30 µM |
| C[C@]1(O)CC[C@H]2[C@@H]3CCC4=CC(=O)CC[C@]4(C)[C@@]3(F)[C@@H](O)C[C@@]21C [FLUOXYMESTERONE] | > 10 µM | > 30 µM | > 30 µM | > 10 µM | > 10 µM | > 10 µM | > 10 µM | > 10 µM | > 30 µM | > 10 µM | > 10 µM | > 10 µM | > 30 µM | – | – |
| CCCC(=O)O[C@]1(C(=O)CO)CC[C@H]2[C@@H]3CCC4=CC(=O)CC[C@]4(C)[C@H]3[C@@H](O)C[C@@]21C [HYDROCORTISONE BUTYRATE] | > 10 µM | > 10 µM | > 10 µM | > 10 µM | > 10 µM | > 10 µM | > 10 µM | > 10 µM | > 30 µM | > 10 µM | > 10 µM | > 10 µM | > 30 µM | – | – |
| CNC(C)CCC=C(C)C (centres undefined) [ISOMETHEPTENE] | > 30 µM | – | – | – | – | > 30 µM | – | – | – | > 30 µM | > 30 µM | > 30 µM | – | > 30 µM | – |
| CC(C)(C)c1cc(C(C)(C)C)c(NC(=O)c2c[nH]c3ccccc3c2=O)cc1O [IVACAFTOR] | > 30 µM | > 10 µM | > 10 µM | – | > 10 µM | > 30 µM | – | > 10 µM | > 30 µM | > 10 µM | 11.2 µM | > 30 µM | > 30 µM | > 30 µM | – |
| CO[C@@H]1[C@@H](O[C@@H]2O[C@H](C)[C@@H](O[C@H]3C[C@@](C)(O)[C@@H](OC(=O)CC(C)C)[C@H](C)O3)[C@H](N(C)C)[C@H]2O)[C@@H](CC=O)C[C@@H](C)[C@@H](O)/C=C/C=C/C[C@@H](C)OC(=O)C[C@H]1OC(C)=O [JOSAMYCIN] | > 10 µM | > 10 µM | > 10 µM | > 10 µM | > 10 µM | > 10 µM | > 10 µM | > 10 µM | > 30 µM | > 10 µM | > 10 µM | > 10 µM | > 30 µM | – | – |
| Cc1cccc(C(C)c2cnc[nH]2)c1C (centres undefined) [MEDETOMIDINE] | > 30 µM | 1.3 µM | > 30 µM | > 10 µM | > 10 µM | > 30 µM | > 30 µM | > 30 µM | > 30 µM | > 30 µM | > 30 µM | – | > 30 µM | > 30 µM | – |
| C[C@H](N)[C@H](O)c1cccc(O)c1 [METARAMINOL] | > 10 µM | > 10 µM | > 10 µM | > 10 µM | > 10 µM | > 10 µM | 35 µM | 12 µM | > 30 µM | > 10 µM | > 10 µM | > 10 µM | > 30 µM | – | – |
| O=C(O)[C@H](CC(=O)N1C[C@H]2CCCC[C@H]2C1)Cc1ccccc1 [MITIGLINIDE] | > 10 µM | > 10 µM | > 10 µM | > 10 µM | > 10 µM | > 10 µM | > 10 µM | > 10 µM | > 30 µM | > 10 µM | > 10 µM | > 10 µM | > 30 µM | – | – |
| CCCC(C)C1(CC)C(=O)NC(=O)NC1=O (centres undefined) [PENTOBARBITAL] | > 10 µM | > 30 µM | > 30 µM | > 10 µM | – | > 10 µM | > 10 µM | > 10 µM | > 30 µM | > 10 µM | > 10 µM | > 10 µM | > 30 µM | – | – |
| O=C(O)C[C@H](O)C[C@H](O)/C=C/c1c(C2CC2)nc2ccccc2c1-c1ccc(F)cc1 [PITAVASTATIN] | > 30 µM | > 30 µM | > 30 µM | > 30 µM | > 10 µM | > 10 µM | > 30 µM | > 10 µM | > 30 µM | > 10 µM | > 30 µM | > 10 µM | > 30 µM | – | – |
| CN1CCN(CC/C=C2/c3ccccc3Sc3ccc(S(=O)(=O)N(C)C)cc32)CC1 [THIOTHIXENE] | 11.6 µM | – | > 10 µM | > 10 µM | > 10 µM | 25.3 µM | – | > 10 µM | 2.8 µM | > 10 µM | 6.26 µM | > 10 µM | 0.0139 µM | > 30 µM | > 30 µM |
